Counter-ions that a name gives are not always drawn.
Target: human H4 receptor (Homo sapiens (Human), UniProt Q9H3N8)
Assay: Binding assay on recombinant human histamine H4 receptor ([3H]histamine competition, SK-N-MC cell membranes)
Settings: Cell Harvester Ki (nM)
Description: Binding Assay on Recombinant Human Histamine H4Receptor
Cell pellets from SK-N-MC cells stably or transiently transfected with human H4 receptor (NCBI accession No. AF312230) were used for the binding assays. Cell pellets were homogenized in 50 mM Tris/5 mM EDTA buffer and supernatants from an 800 g spin were collected and recentrifuged at 30,000 g for 30 min. Pellets were rehomogenized in 50 mM Tris/5 mM EDTA buffer. […] Membranes were harvested by rapid filtration using the 96 well Brandel system (Table 1, Brandel) or a cell harvester (Table 1, Cell Harvester) using a Whatman GF/C filter or filter plates treated with 0.5% polyethylenimine (PEI), and washed 4 times with ice-cold 50 mM Tris/5 mM EDTA buffer. Filters were then dried, mixed with scintillant and radioactive counts were determined. […] Where activity is shown as greater than (>) a particular value, the value is the highest concentration tested.

| SMILES | Ki [nM] |
| --- | --- |
| CCCCNc1cc(N2CCNCC2)ccn1 [Example 36, N-Butyl-4-piperazin-1-ylpyridin-2-amine] | 104 |

Same assay, conditions: membranes harvested with 96 well Brandel system; [3H]histamine 10 nM; average of results; read-out: Brandel Ki

| Ki [nM] | SMILES |
| --- | --- |
| 1 | CN[C@@H]1CCN(c2ccnc(NC3CC4CCC3C4)c2)C1 (stereo partly drawn) [Example 1, Bicyclo[2.2.1]hept-2-yl[4-((3R)-3-methylamino-pyrrolidin-1-yl)-pyridin-2-yl]amine dihydrochloride] |
| 42.4 | N[C@@H]1CCN(c2ccnc(NC3CCOCC3)n2)C1 [Example 30, 4-[(3R)-3-Aminopyrrolidin-1-yl]-N-(tetrahydro-2H-pyran-4-yl)pyrimidin-2-amine] |
| 31.5 | CN1CCN(c2ccnc(NC3CC4CCC3C4)n2)CC1 (stereo not drawn) [Example 44, N-[Bicyclo[2.2.1]hept-2-yl]-4-(4-methylpiperazin-1-yl)pyrimidin-2-amine] |

Continued, molecule first:

| SMILES | Ki [nM] |
| --- | --- |
| CN[C@@H]1CCN(c2ccnc(N[C@H]3C[C@H]4C[C@@H]([C@@H]3C)C4(C)C)c2)C1 [Example 9, 4-[(3R)-3-(Methylamino)pyrrolidin-1-yl]-N-[(1S,2S,3S,5R)-2,6,6-trimethylbicyclo[3.1.1]hept-3-yl]pyridin-2-amine] | 1 |
| CN[C@@H]1CCN(c2ccnc(N[C@@H]3C[C@@H]4C[C@H]([C@H]3C)C4(C)C)c2)C1 [Example 10, 4-[(3R)-3-(Methylamino)pyrrolidin-1-yl]-N-[(1R,2R,3R,5S)-2,6,6-trimethylbicyclo[3.1.1]hept-3-yl]pyridin-2-amine] | 0.5 |
| CC(C)CNc1cc(N2CCNCC2)ccn1 [Example 19, N-(2-Methylpropyl)-4-piperazin-1-ylpyridin-2-amine dihydrochloride] | 45.3 |
| CC(C)CNc1cc(N2CCN(C)CC2)ccn1 [Example 21, 4-(4-Methylpiperazin-1-yl)-N-(2-methylpropyl)pyridin-2-amine] | 51.4 |
| CC(C)CNc1nccc(N2CCN(C)CC2)n1 [Example 31, Isobutyl-[4-(4-methyl-piperazin-1-yl)-pyrimidin-2-yl]-amine] | 69 |
| c1cc(N2CCNCC2)cc(NCC2CC2)n1 [Example 35, N-(Cyclopropylmethyl)-4-piperazin-1-ylpyridin-2-amine] | 25.6 |

Same assay, conditions: membranes harvested with cell harvester; [3H]histamine 10 nM; average of results; read-out: Cell Harvester Ki

| Ki [nM] | SMILES |
| --- | --- |
| 377 | C[C@H]1[C@@H](Nc2nccc(N3CCNCC3)n2)C[C@@H]2C[C@H]1C2(C)C (stereo in doubt) [Example 71, (4-Piperazin-1-yl-pyrimidin-2-yl)-(2,6,6-trimethyl-bicyclo[3.1.1]hept-3-yl)-amine] |
| > 10000 | NC1CCN(c2cnnc(NCCCO)c2)C1 (stereo in doubt) [Example 338, 3-({5-[(3S)-3-Aminopyrrolidin-1-yl]pyridazin-3-yl}amino)propan-1-ol] |
| > 10000 | CNC1CCN(c2cnnc(NCc3ccccn3)c2)C1 (stereo in doubt) [Example 402, 5-[(3S)-3-(Methylamino)pyrrolidin-1-yl]-N-(pyridin-2-ylmethyl)pyridazin-3-amine] |
| 0.5 | CN[C@@H]1CCN(c2ccnc(NC3CC4CCC3C4)c2)C1 (stereo partly drawn) [Example 1, Bicyclo[2.2.1]hept-2-yl[4-((3R)-3-methylamino-pyrrolidin-1-yl)-pyridin-2-yl]amine dihydrochloride] |
| 8.9 | CN[C@@H]1CCN(c2ccnc(N[C@@H]3CCOC3)c2)C1 [Example 5, 4-[(3R)-3-(Methylamino)pyrrolidin-1-yl]-N-[(3R)-tetrahydrofuran-3-yl]pyridin-2-amine dihydrochloride] |
| 35.1 | CN[C@@H]1CCN(c2ccnc(NCC3CCCO3)c2)C1 (stereo partly drawn) [Example 6, 4-[(3R)-3-(Methylamino)pyrrolidin-1-yl]-N-[tetrahydrofuran-2-ylmethyl]pyridin-2-amine dihydrochloride] |
| 13.7 | CN[C@@H]1CCN(c2ccnc(NCc3ccc(F)cc3)c2)C1 [Example 7, N-(4-Fluorobenzyl)-4-[(3R)-3-(methylamino)pyrrolidin-1-yl]pyridin-2-amine dihydrochloride] |
| 10.6 | CN[C@@H]1CCN(c2ccnc(NC3CC3)c2)C1 [Example 8, N-Cyclopropyl-4-[(3R)-3-(methylamino)pyrrolidin-1-yl]pyridin-2-amine dihydrochloride] |
| 12.9 | CN[C@@H]1CCN(c2ccnc(NCc3ccccc3)c2)C1 [Example 11, N-Benzyl-4-[(3R)-3-(methylamino)pyrrolidin-1-yl]pyridin-2-amine] |
| 114 | CC(C)CNc1cc(N2CC[C@H](N)C2)ccn1 [Example 14, 4-[(3S)-3-Aminopyrrolidin-1-yl]-N-(2-methylpropyl)pyridin-2-amine] |
| 527 | c1ccc(CNc2cc(N3CCNCC3)ccn2)cc1 [Example 18, N-Benzyl-4-piperazin-1-ylpyridin-2-amine dihydrochloride] |
| 2.7 | CC(C)CNc1nccc(N2CC[C@@H](N)C2)n1 [Example 23, 4-[(3R)-3-Aminopyrrolidin-1-yl]-N-(2-methylpropyl)pyrimidin-2-amine] |
| 3.32 | N[C@@H]1CCN(c2ccnc(NCC3CC3)n2)C1 [Example 24] |
| 3.8 | N[C@@H]1CCN(c2ccnc(NC3CCCC3)n2)C1 [Example 25, 4-[(3R)-3-Aminopyrrolidin-1-yl]-N-cyclopentylpyrimidin-2-amine] |
| 67.7 | CC(C)(O)CNc1nccc(N2CC[C@@H](N)C2)n1 [Example 27, 1-({4-[(3R)-3-Aminopyrrolidin-1-yl]pyrimidin-2-yl}amino)-2-methylpropan-2-ol] |
| 8.4 | N[C@@H]1CCN(c2ccnc(NC3CCC3)n2)C1 [Example 28, 4-[(3R)-3-Aminopyrrolidin-1-yl]-N-cyclobutylpyrimidin-2-amine] |
| 91.8 | N[C@@H]1CCN(c2ccnc(NC3CCOCC3)n2)C1 [Example 30, 4-[(3R)-3-Aminopyrrolidin-1-yl]-N-(tetrahydro-2H-pyran-4-yl)pyrimidin-2-amine] |
| 0.9 | CN[C@@H]1CCN(c2ccnc(Nc3ccccc3)c2)C1 [Example 33, 4-[(3R)-3-(Methylamino)pyrrolidin-1-yl]-N-phenylpyridin-2-amine] |
| 247 | COCCNc1cc(N2CCNCC2)ccn1 [Example 37, N-(2-Methoxyethyl)-4-piperazin-1-ylpyridin-2-amine] |
| 554 | c1cc(N2CCNCC2)cc(NCC2CCCO2)n1 (stereo not drawn) [Example 39, 4-Piperazin-1-yl-N-(tetrahydrofuran-2-ylmethyl)pyridin-2-amine] |
| 790 | Fc1ccc(CNc2cc(N3CCNCC3)ccn2)cc1 [Example 40, N-(4-Fluorobenzyl)-4-piperazin-1-ylpyridin-2-amine] |
| 2.2 | CN[C@@H]1CCN(c2ccnc(NCC(C)(C)C)c2)C1 [Example 41, N-(2,2-Dimethylpropyl)-4-[(3R)-3-(methylamino)pyrrolidin-1-yl]pyridin-2-amine] |
| 31.8 | CN[C@@H]1CCN(c2ccnc(NCCOC)c2)C1 [Example 42, N-(2-Methoxyethyl)-4-[(3R)-3-(methylamino)pyrrolidin-1-yl]pyridin-2-amine] |
| 3.3 | N[C@@H]1CCN(c2ccnc(NC3CC4CCC3C4)n2)C1 (stereo partly drawn) [Example 43, 4-[(3R)-3-Aminopyrrolidin-1-yl]-N-[bicyclo[2.2.1]hept-2-yl]pyrimidin-2-amine] |
| 85.7 | CN1CCN(c2ccnc(NC3CC4CCC3C4)n2)CC1 (stereo not drawn) [Example 44, N-[Bicyclo[2.2.1]hept-2-yl]-4-(4-methylpiperazin-1-yl)pyrimidin-2-amine] |
| 8.4 | CCCCNc1nccc(N2CC[C@@H](N)C2)n1 [Example 46, 4-[(3R)-3-Aminopyrrolidin-1-yl]-N-butylpyrimidin-2-amine] |
| 33.2 | CN1CCN(c2ccnc(NCC3CCCO3)n2)CC1 (stereo not drawn) [Example 50, 4-(4-Methylpiperazin-1-yl)-N-(tetrahydrofuran-2-ylmethyl)pyrimidin-2-amine] |

Further lines, the molecule ahead of its results:

| SMILES | Ki [nM] |
| --- | --- |
| CC(C)(CO)CNc1nccc(N2CC3CCN[C@H]3C2)n1 (stereo in doubt) [Example 148, 3-({4-[(3aR,6aR)-Hexahydropyrrolo[3,4-b]pyrrol-5(1H)-yl]pyrimidin-2-yl}amino)-2,2-dimethylpropan-1-ol] | 250 |
| OCCCNc1nccc(N2CC3CCN[C@H]3C2)n1 (stereo in doubt) [Example 159, 3-({4-[(3aR,6aR)-Hexahydropyrrolo[3,4-b]pyrrol-5(1H)-yl]pyrimidin-2-yl}amino)propan-1-ol] | 266 |
| NC1CCN(c2cnnc(NCC3CC4CCC3C4)c2)C1 (stereo in doubt) [Example 304, 5-[(3S)-3-Aminopyrrolidin-1-yl]-N-(bicyclo[2.2.1]hept-2-ylmethyl)pyridazin-3-amine] | 310 |
| CN[C@@H]1CCN(c2ccnc(N[C@H]3C[C@H]4C[C@@H]([C@@H]3C)C4(C)C)c2)C1 [Example 9, 4-[(3R)-3-(Methylamino)pyrrolidin-1-yl]-N-[(1S,2S,3S,5R)-2,6,6-trimethylbicyclo[3.1.1]hept-3-yl]pyridin-2-amine] | 0.4 |
| CN[C@@H]1CCN(c2ccnc(N[C@@H]3C[C@@H]4C[C@H]([C@H]3C)C4(C)C)c2)C1 [Example 10, 4-[(3R)-3-(Methylamino)pyrrolidin-1-yl]-N-[(1R,2R,3R,5S)-2,6,6-trimethylbicyclo[3.1.1]hept-3-yl]pyridin-2-amine] | 0.5 |
| CC(C)Nc1cc(N2CC[C@@H](N)C2)ccn1 [Example 13, 4-[(3R)-3-Aminopyrrolidin-1-yl]-N-(1-methylethyl)pyridin-2-amine] | 26.2 |
| c1cc(N2CCNCC2)cc(NC2CCCC2)n1 [Example 16, N-Cyclopentyl-4-piperazin-1-ylpyridin-2-amine] | 48.2 |
| CCCNc1cc(N2CCNCC2)ccn1 [Example 17, 4-Piperazin-1-yl-N-propylpyridin-2-amine dihydrochloride] | 375 |
| N[C@@H]1CCN(c2ccnc(N[C@@H]3CCOC3)n2)C1 [Example 29, 4-[(3R)-3-Aminopyrrolidin-1-yl]-N-[(3R)-tetrahydrofuran-3-yl]pyrimidine-2-amine] | 58.5 |
| CC(C)CNc1nccc(N2CCN(C)CC2)n1 [Example 31, Isobutyl-[4-(4-methyl-piperazin-1-yl)-pyrimidin-2-yl]-amine] | 76.9 |
| CNC1CN(c2ccnc(NCC(C)C)c2)C1 [Example 34, 4-[3-(Methylamino)azetidin-1-yl]-N-(2-methylpropyl)pyridin-2-amine] | 18.1 |
| c1cc(N2CCNCC2)cc(NCC2CC2)n1 [Example 35, N-(Cyclopropylmethyl)-4-piperazin-1-ylpyridin-2-amine] | 74.7 |
| c1ccc(Nc2cc(N3CCNCC3)ccn2)cc1 [Example 38, N-Phenyl-4-piperazin-1-ylpyridin-2-amine] | 275 |
| CN1CCN(c2ccnc(NCC3CC3)n2)CC1 [Example 45, N-(Cyclopropylmethyl)-4-(4-methylpiperazin-1-yl)pyrimidin-2-amine] | 7.1 |
| CCCCNc1nccc(N2CCN(C)CC2)n1 [Example 47, N-Butyl-4-(4-methylpiperazin-1-yl)pyrimidin-2-amine] | 33.2 |
| CN1CCN(c2ccnc(NC3CCCC3)n2)CC1 [Example 48, N-Cyclopentyl-4-(4-methylpiperazin-1-yl)pyrimidin-2-amine] | 26.7 |

Same assay, conditions: read-out: Brandel Ki

| SMILES | Ki [nM] |
| --- | --- |
| CCCCNc1cc(N2CCNCC2)ccn1 [Example 36, N-Butyl-4-piperazin-1-ylpyridin-2-amine] | 91.3 |

Source: US9732087B2, “Diamino-pyridine, pyrimidine, and pyridazine modulators of the histamine H4 receptor” (JANSSEN PHARMACEUTICA NV, priority 2008, dated 2017)
